Experimental data: publication PMC8041284, “Tunable Methacrylamides for Covalent Ligand Directed Release Chemistry” (Journal of the American Chemical Society, 2021)

Target: BTK (Homo sapiens, UniProt Q06187)
Assay: biochemical
Settings: read-out: BTK inhibition (%), 0.75 uM BTK, […] probe 3l, 15 min preincubation

Chain of BTK (Q06187 402-655 limits assumed): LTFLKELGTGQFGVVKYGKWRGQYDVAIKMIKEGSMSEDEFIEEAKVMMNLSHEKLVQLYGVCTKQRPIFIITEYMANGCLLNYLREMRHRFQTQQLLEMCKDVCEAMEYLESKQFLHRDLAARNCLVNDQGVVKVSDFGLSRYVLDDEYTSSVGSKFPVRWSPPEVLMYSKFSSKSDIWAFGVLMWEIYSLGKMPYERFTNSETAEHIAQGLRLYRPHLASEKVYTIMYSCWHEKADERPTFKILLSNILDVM

SMILES | inhibition at 10 µM [%]
COc1cc(O)c2c(c1)C(=O)c1cc(C)cc(O)c1C2=O [PCM-0088700] | 11.1
O=C(O)/C(Cc1ccccc1[N+](=O)[O-])=N/Nc1nc(-c2ccc(Cl)c(Cl)c2)cs1 [PCM-0215282] | 54.8
CCCOc1ccc2nc(NC(=O)OC)[nH]c2c1 [PCM-0086075] | 10.2
O=c1cc(N2CCOCC2)oc2c(-c3ccc4c(c3)OCCO4)csc12 [PCM-0215845] | 23.4
N#C/C(=C\c1ccc(-c2cc(Cl)ccc2Cl)o1)C(=O)Nc1cccc2ncccc12 [PCM-0215369] | 22.4
Nc1ccc(C(=O)NCC(=O)O)cc1 [PCM-0086407] | 28
CC(C)c1nc(N(C)S(C)(=O)=O)nc(-c2ccc(F)cc2)c1/C=C/[C@@H](O)C[C@@H](O)CC(=O)O [PCM-0090418] | -4.7
COc1cc(/C=C/C(=O)OC[C@H]2O[C@H](O[C@]3(CO)O[C@H](CO)[C@@H](O)[C@@H]3OC(=O)/C=C/c3cc(OC)c(O)c(OC)c3)[C@H](O)[C@@H](O)[C@@H]2O)cc(OC)c1O [PCM-0216306] | -6.2
COc1cc2c(cc1OC)[C@H]1[C@@H](C)c3ccc(OC)c(OC)c3CN1CC2 [PCM-0216500] | -27
C=C(C)[C@H]1CC=C(C)CC1 [PCM-0216628] | 5.4
CC(=O)c1cc([N+](=O)[O-])c(Sc2ccc(F)cc2F)s1 [PCM-0215212] | 5.4
Cc1c(C(=O)NN2CCCCC2)nn(-c2ccc(Cl)cc2Cl)c1-c1ccc(I)cc1 [PCM-0095445] | 34.2
CC(=O)CCc1ccccc1 [PCM-0216622] | -6.9
C[C@@H]1Cc2c([nH]c3ccccc23)[C@@H](c2c(F)cc(/C=C/C(=O)O)cc2F)N1CC(C)(C)F [PCM-0215727] | 30.9
Nc1nc(N)nc(-c2cc(Cl)ccc2Cl)n1 [PCM-0086432] | 4.3
C=CC(=O)Nc1ccc(CN2C(=O)N(c3cc(OC)cc(OC)c3)Cc3cnc(Nc4ccc(N5CCN(C)CC5)cc4)nc32)cc1 [PCM-0215559] | 88.3

SMILES | inhibition at 10 µM [%]
CCNC(=O)c1noc(-c2cc(C(C)C)c(O)cc2O)c1-c1ccc(CN2CCOCC2)cc1 [PCM-0095017] | -0.7
CCCNC(=O)c1cn2ncnc(Nc3cc(C(=O)NC4CC4)ccc3C)c2c1C [PCM-0215631] | -13.8
CN1CCN(CCOc2cc(OC3CCOCC3)c3c(Nc4c(Cl)ccc5c4OCO5)ncnc3c2)CC1 [PCM-0094889] | 59.3
CCCCCCCCCCCCCCCCCCOP(=O)([O-])OC1CC[N+](C)(C)CC1 [PCM-0215183] | -46.8
CCCCc1nc2cc(/C=C/C(=O)NO)ccc2n1CCN(CC)CC [PCM-0095187] | 9.7
O=C(/C=C/c1cccnc1)c1ccncc1 [PCM-0215906] | -6.9
CCCCCCCCCCCCCCCCCCCCCCCCCCCCO [PCM-0215950] | -11.1
O=c1[nH]c2ccccc2o1 [PCM-0216203] | 5.4
C=C1C(=O)[C@]23[C@H](O)[C@H]1CC[C@H]2[C@@]12CO[C@]3(O)[C@@H](O)[C@@H]1C(C)(C)CC[C@@H]2O [PCM-0214681] | -1.6
O=c1c(N=Nc2nccs2)c(-c2ccccc2)[nH]n1-c1nc(-c2ccccc2)cs1 [PCM-0215938] | 98.1
C[C@@H]1C[C@H]2[C@@H]3CCC4=CC(=O)C=C[C@]4(C)[C@@]3(Cl)[C@@H](O)C[C@]2(C)[C@@]1(OC(=O)c1ccco1)C(=O)CCl [PCM-0085978] | 40
COc1ccc(C(=O)O)cc1O [PCM-0215975] | -13.9
CC(=O)OC/C=C/c1ccccc1 [PCM-0216207] | -14.7
CCCCCCCCCC(C)=O [PCM-0215930] | 10.1
O=C1NC(=O)/C(=C\c2ccc(-c3ccc(F)cc3)o2)S1 [PCM-0095359] | 11
CNC(=O)c1ccc(N2C(=S)N(c3ccc(C#N)c(C(F)(F)F)c3)C(=O)C2(C)C)cc1F [PCM-0095003] | -10.3
